For eleven compounds, TGI and GI50 results are on record in PubChem BioAssay (NCI).

Some test systems named below: DMS 114 small cell lung; DMS 273 small cell lung; SNB-78 CNS; KM20L2 colon; HOP-18 NSCLC; LXFL 529 NSCLC; RXF-631 renal; P388 leukemia; SN12K1 renal; P388/ADR leukemia.
Common to all, as to test: NCI tumour cell line growth inhibition, 48 h

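Values below derive from 48-hour exposures of cells grown in 96-well plates, with endpoints linearly interpolated between the two concentrations bracketing the appropriate inhibition level. GI50 marks 50% less growth. TGI denotes the concentration required for complete inhibition of growth.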

For `C/C(=N\NC(=O)c1ccccc1O)c1cccc(/C(C)=N/NC(=O)c2ccccc2O)n1.O=S(=O)([O-])[O-].[Fe+2]`, the TGI in the assay on DMS 114 small cell lung, in the assay with DMS 273 small cell lung, in the assay with SNB-78 CNS and in the assay on KM20L2 colon was greater than 100 µM in each case. Moreover, the GI50 in the assay with DMS 273 small cell lung was 46.4 µM; with SNB-78 CNS, greater than 100 µM; in the assay on KM20L2 colon, greater than 100 µM.
Regarding `O=C(N/N=C/c1cc(Br)cc(Br)c1[O-])c1ccccc1O.O=C(N/N=C/c1cc(Br)cc(Br)c1[O-])c1ccccc1O.[Zn+2]`, the TGI with KM20L2 colon came out at 6.57 µM.
Turning to `COc1nc(N)c(NC(C)=O)c(=O)n1C`, the TGI with DMS 114 small cell lung, in the assay on HOP-18 NSCLC, in the assay on DMS 273 small cell lung, in the assay on SNB-78 CNS, with LXFL 529 NSCLC and in the assay with KM20L2 colon was greater than 100 µM in each case. This compound also came in with a TGI with RXF-631 renal greater than 100 µM.
For `COc1cc(C2(c3ncc[nH]3)SSSCC2O)ccc1O` (centres undefined), the TGI in the assay with DMS 114 small cell lung is 52.2 µM; with HOP-18 NSCLC, greater than 100 µM; with DMS 273 small cell lung, greater than 100 µM; with P388 leukemia, greater than 48.1 µM; with SN12K1 renal, greater than 55.4 µM; in the assay with SNB-78 CNS, greater than 100 µM. Further, the TGI with P388/ADR leukemia is greater than 54.8 µM; with KM20L2 colon it was greater than 100 µM.
In the case of `CC1C2C=C(O)C(=O)C(C2=O)C1c1ccccc1` (centres undefined), the TGI with DMS 273 small cell lung, in the assay with SNB-78 CNS, with LXFL 529 NSCLC, with KM20L2 colon and in the assay on RXF-631 renal was greater than 100 µM each time.
For `CCCCCCCCCOCC(COP(=O)([O-])OCC[N+](C)(C)C)OC` (centres undefined), the TGI with DMS 114 small cell lung, in the assay on HOP-18 NSCLC, in the assay on DMS 273 small cell lung, in the assay with P388 leukemia, in the assay with SN12K1 renal and in the assay with SNB-78 CNS was greater than 100 µM each time. For the same compound, the TGI in the assay on P388/ADR leukemia and with KM20L2 colon was greater than 100 µM each time.
`CC1CCC2CC(=O)OC([C@@H]3C(=O)O[C@@H](C4=CCCC4)C4C(C)CCC43)C12` (some centres undefined): the TGI with DMS 114 small cell lung, in the assay with HOP-18 NSCLC, with DMS 273 small cell lung, with SNB-78 CNS, in the assay on LXFL 529 NSCLC and with KM20L2 colon was greater than 100 µM in each case.
As to `COc1cc(OC)cc(-c2cc(=O)c3cc4c(cc3[nH]2)OCO4)c1`, the TGI was 0.726 µM in the assay on DMS 114 small cell lung; greater than 75.6 µM with HOP-18 NSCLC; 3.31 µM with DMS 273 small cell lung; greater than 89.2 µM in the assay with SNB-78 CNS; 20.6 µM in the assay on LXFL 529 NSCLC; 0.652 µM with KM20L2 colon.
Take `CSCSCC(CO)NC(=O)/C(C)=C\c1c(C)[nH]c(=O)[nH]c1=O` (centres undefined): the TGI with DMS 114 small cell lung, with DMS 273 small cell lung, with P388 leukemia, in the assay with SN12K1 renal, with SNB-78 CNS and in the assay on P388/ADR leukemia was greater than 250 µM each time. The compound further displayed a TGI with KM20L2 colon greater than 250 µM.
Take `O=C(c1ccc(Cl)cc1)c1ccc(OCCCOc2ccc(C(=O)c3ccc(Cl)cc3)cc2Cl)c(Cl)c1`: the TGI with DMS 114 small cell lung, in the assay on DMS 273 small cell lung, in the assay on SNB-78 CNS, in the assay with LXFL 529 NSCLC, in the assay with KM20L2 colon and in the assay on RXF-631 renal was greater than 100 µM throughout.
`CC(C)C1NC(=O)CC(c2ccccc2)N(N=O)C1c1ccccc1` (centres undefined): the TGI in the assay on DMS 114 small cell lung, in the assay with HOP-18 NSCLC, in the assay on DMS 273 small cell lung, in the assay with P388 leukemia, with SN12K1 renal and in the assay with SNB-78 CNS was greater than 100 µM each time. Besides, the TGI with P388/ADR leukemia and in the assay with KM20L2 colon was greater than 100 µM throughout.
